# Results: patent publication US20220259279A1, “ALGINATE-BASED MICROCAPSULATION FOR THE DELIVERY OF ALPHA-CGRP IN CARDIOVASCULAR DISEASES” (University of South Carolina, priority 2019, published 2022)
# Tested on: rat H9C2 cells
# Experiment: trypan-blue cell viability assay
# Type: cell-based
# Details: 1 μM and 5 μM, 7 days, vs control-untreated cells
# Experimental: Two different cardiac cell lines, rat H9C2 cells and mouse HL-1 cells, and two different assays, trypan-blue cell viability assay and calcium dye fluorescent based assay, were used to determine the cytotoxicity of prepared alginate-αCGRP microcapsules.
# Trypan-blue cell viability assay: Rat cardiac myoblast cell line, H9C2 cells, was cultured in complete culture medium containing Dulbecco's Modified Eagles' Medium (DMEM) supplemented with 10% fetal bovine serum (FBS), 4.5 gm/liter D-glucose, 1.5 gm/liter sodium bicarbonate, and antibiotic solution of 100 unit/ml penicillin and 100 μg/ml streptomycin. […] The viability of H9C2 cells in presence or absence of alginate-αCGRP microcapsules was determined by trypan blue assay. […] After 7 days of treatment, cells were trypsinized and counted by hemocytometer using trypan-blue exclusion method (Sigma) according to manufacturer's instructions. […]
# Trypan-blue cell viability assay: The rat cardiac H9C2 cells were grown at 37° C. in a humidified incubator with 5% CO2 in complete culture medium (containing DMEM supplemented with 10% fetal bovine serum, FBS, 4.5 gm/liter D-glucose, and 1× penicillin/streptomycin). The viability of H9C2 cells in presence of alginate-α-CGRP microcapsules was determined by trypan-blue assay (Sigma). […] After 7 days of treatment, cells were trypsinized and counted by hemocytometer using trypan-blue exclusion method.
smiles,measurement,value
CC(C)C[C@H](NC(=O)CNC(=O)[C@H](C)NC(=O)[C@H](CC(C)C)NC(=O)[C@H](CCCNC(=N)N)NC(=O)[C@H](Cc1c[nH]cn1)NC(=O)[C@@H](NC(=O)[C@@H](NC(=O)[C@@H]1CSSC[C@H](NC(=O)[C@@H](N)CO)C(=O)N[C@@H](CC(N)=O)C(=O)N[C@@H]([C@@H](C)O)C(=O)N[C@@H](C)C(=O)N[C@@H]([C@@H](C)O)C(=O)N1)C(C)C)[C@@H](C)O)C(=O)N[C@@H](CC(C)C)C(=O)N[C@@H](CO)C(=O)N[C@@H](CCCNC(=N)N)C(=O)N[C@@H](CO)C(=O)NCC(=O)NCC(=O)N[C@H](C(=O)N[C@H](C(=O)N[C@@H](CCCCN)C(=O)N[C@@H](CC(=O)O)C(=O)N[C@@H](CC(N)=O)C(=O)N[C@@H](Cc1ccccc1)C(=O)N[C@H](C(=O)N1CCC[C@H]1C(=O)N[C@H](C(=O)N[C@@H](CC(N)=O)C(=O)N[C@H](C(=O)NCC(=O)N[C@@H](CO)C(=O)N[C@@H](CCC(=O)O)C(=O)N[C@@H](C)C(=O)N[C@@H](Cc1ccccc1)C(N)=O)C(C)C)[C@@H](C)O)C(C)C)C(C)C)C(C)C [α-CGRP-alone],"viability of H9C2 cells (live cells, trypan blue)",not significantly different
